{"source": "patent US9416115B2", "about": "“Fused heterocyclic compounds as ion channel modulators” (Gilead Sciences, Inc., priority 2013, dated 2016)", "key": {"hNav1.7": {"biological_target": "hNav1.7 (Homo sapiens, UniProt Q15858)", "sequence (Q15858 whole entry)": "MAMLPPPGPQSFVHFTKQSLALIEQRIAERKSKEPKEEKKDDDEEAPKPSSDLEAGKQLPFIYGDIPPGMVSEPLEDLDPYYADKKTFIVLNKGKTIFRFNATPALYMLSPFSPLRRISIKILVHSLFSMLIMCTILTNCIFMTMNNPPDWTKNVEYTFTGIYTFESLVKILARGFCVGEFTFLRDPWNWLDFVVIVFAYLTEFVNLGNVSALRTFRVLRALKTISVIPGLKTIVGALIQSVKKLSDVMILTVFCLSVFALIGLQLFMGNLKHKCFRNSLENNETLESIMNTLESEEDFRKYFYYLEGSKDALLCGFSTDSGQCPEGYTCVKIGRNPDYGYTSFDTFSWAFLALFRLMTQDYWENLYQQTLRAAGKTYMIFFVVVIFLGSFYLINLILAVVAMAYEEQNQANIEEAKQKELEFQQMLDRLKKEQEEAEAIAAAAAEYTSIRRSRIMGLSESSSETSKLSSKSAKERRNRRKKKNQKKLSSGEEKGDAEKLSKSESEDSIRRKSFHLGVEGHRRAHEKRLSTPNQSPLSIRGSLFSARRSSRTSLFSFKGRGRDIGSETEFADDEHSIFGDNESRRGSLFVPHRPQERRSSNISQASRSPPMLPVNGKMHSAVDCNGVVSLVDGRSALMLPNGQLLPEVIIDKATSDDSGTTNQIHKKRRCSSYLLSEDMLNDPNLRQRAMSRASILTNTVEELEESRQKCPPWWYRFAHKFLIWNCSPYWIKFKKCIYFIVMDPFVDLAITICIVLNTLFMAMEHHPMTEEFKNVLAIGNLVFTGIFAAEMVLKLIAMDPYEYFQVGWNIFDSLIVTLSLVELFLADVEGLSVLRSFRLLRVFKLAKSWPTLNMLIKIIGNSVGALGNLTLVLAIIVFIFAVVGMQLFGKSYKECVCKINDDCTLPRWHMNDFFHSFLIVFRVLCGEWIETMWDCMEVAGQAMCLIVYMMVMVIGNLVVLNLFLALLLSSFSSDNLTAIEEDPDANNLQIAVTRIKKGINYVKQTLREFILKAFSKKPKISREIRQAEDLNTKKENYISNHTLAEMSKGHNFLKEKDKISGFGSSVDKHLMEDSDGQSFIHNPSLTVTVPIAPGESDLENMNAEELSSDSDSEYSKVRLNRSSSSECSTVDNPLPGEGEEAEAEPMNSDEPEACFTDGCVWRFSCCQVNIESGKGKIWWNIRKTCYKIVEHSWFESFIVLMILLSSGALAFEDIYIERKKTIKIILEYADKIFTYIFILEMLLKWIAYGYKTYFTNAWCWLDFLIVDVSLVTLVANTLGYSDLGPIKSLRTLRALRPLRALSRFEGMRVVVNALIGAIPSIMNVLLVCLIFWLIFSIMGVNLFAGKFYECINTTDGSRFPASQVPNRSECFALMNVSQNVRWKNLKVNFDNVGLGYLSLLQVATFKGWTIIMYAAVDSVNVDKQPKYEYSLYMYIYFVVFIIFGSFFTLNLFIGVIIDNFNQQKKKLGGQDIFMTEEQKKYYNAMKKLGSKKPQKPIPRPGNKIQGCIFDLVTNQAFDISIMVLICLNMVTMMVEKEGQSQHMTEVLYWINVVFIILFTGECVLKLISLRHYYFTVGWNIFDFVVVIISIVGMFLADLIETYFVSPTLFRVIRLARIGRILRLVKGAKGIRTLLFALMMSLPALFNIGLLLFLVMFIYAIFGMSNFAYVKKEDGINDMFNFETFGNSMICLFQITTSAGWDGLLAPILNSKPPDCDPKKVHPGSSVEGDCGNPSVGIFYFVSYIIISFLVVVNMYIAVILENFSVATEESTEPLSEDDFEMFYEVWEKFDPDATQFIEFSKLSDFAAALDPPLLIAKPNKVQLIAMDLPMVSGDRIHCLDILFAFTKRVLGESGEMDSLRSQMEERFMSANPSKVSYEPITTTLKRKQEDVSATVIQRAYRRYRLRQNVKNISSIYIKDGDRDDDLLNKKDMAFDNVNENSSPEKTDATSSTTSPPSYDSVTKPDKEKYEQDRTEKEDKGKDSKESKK", "assay": "Voltage-dependent inhibition of the Nav1.7 sodium channel", "type": "cell-based", "conditions": "voltage-dependent block of peak current", "procedure": "HEK-293 cells stably expressing wild-type (WT) hNav1.7 were obtained from Scottish Biomedical (Glasgow, Scotland, United Kingdom). Cells are maintained with standard tissue culture procedures and stable channel expression is maintained with 500 ug/mL G418 in the culture medium. Unless otherwise noted, all reagents are purchased from Sigma-Aldrich (St Louis, Mo., U.S.A.).\nAssays measuring Voltage-Dependent Block (VDB) of Nav1.7 are performed on an automated electrophysiology platform, QPatch 16X or QPatch HT (Sophion Bioscience, Copenhagen, Denmark), using the whole cell patch clamp technique to measure currents through the cell membrane. Series resistance compensation is set to 100% and series resistance and whole-cell compensation are performed automatically. Currents stored in the Sophion Bioscience Oracle database (Sophion Bioscience, Copenhagen, Denmark). Analysis is performed using QPatch Assay software and data are compiled in Excel 2010 (Microsoft, Seattle, Wash., U.S.A.).\nThe internal (pipette) solution consists of (in mM) 105 CsF, 10 NaF, 20 CsCl, 2 EGTA, 10 HEPES, 10 Dextrose with a pH of 7.35 and osmolarity of 300 mOsmol/kg. The external (bath) solution contains in (mM): 140 NaCl, 4 KCl, 1.8 CaCl2, 1 MgCl2, 10 dextrose, 10 HEPES, with a pH of 7.35 and osmolarity of 310 mOsmol/kg. Experiments are carried out at 23-25° C.\nCompound stocks are routinely made by the Gilead Sample Bank in vials to 10 mM in dimethyl sulfoxide (DMSO). In some cases, when compounds are not soluble in DMSO, they are made in 100% ethanol. Stocks are sonicated as necessary. Compounds are diluted in extracellular solution using a MicroLab Nimbus (Hamilton Robotics, Reno, Nev.) to 1 μM in glass vials and transferred to glass well plates before robotic addition to the cells.\nCells are allowed to stabilize for 10 min after establishment of the whole-cell configuration before current is measured. The test compound is applied 3 times at 120 second intervals to allow for equilibration. Currents were leak subtracted using a P/4 procedure, low-pass Bessel filtered at 5 kHz and digitized at 25 kHz. Results are presented as mean percentage inhibition.\nVoltage-dependent block of Nav1.7 peak current was measured during a voltage step to 0 mV (20 ms) following a voltage step pre-conditioning steps (−60 mV for 10 sec followed by −120 mV for 10 ms). The holding potential was −120 mV and this voltage protocol induces half maximal inactivation of Nav1.7. The voltage protocol for VDB was performed every 45 seconds in the absence and presence of compound and percentage inhibition was calculated with respect to the compound free condition."}, "[1]": {"tested_on": "Ischemia-Induced ST Segment Elevation in Anesthetized Rabbits", "assay": "Ischemia-induced ST segment elevation in anesthetized rabbits", "type": "in vivo, New Zealand rabbits", "conditions": "iv infusion; 15 min LAD ischemia after 30 min of compound administration", "procedure": "This study was undertaken to determine the anti-ischemic effects of compounds of the present disclosure in an in vivo rabbit model.\nFemale New Zealand rabbits (3.0-4.0 kg) were purchased from Western Oregon Rabbitry. Animals were housed on a 12-h light and dark cycle and received standard laboratory chow and water. All experiments were performed in accordance with the Guide for the Care and Use of Laboratory Animals published by The National Research Council and with the experimental protocol approved by the Institutional Animal Care Committee of Gilead Sciences, Inc.\n(§1) Rabbits were anesthetized with ketamine (35 mg/kg) and xylazine (5 mg/kg) intramuscular injection (im). A tracheotomy was performed and the trachea was intubated with an endotracheal tube. The animal was ventilated with room air supplemented with oxygen using a pressure control animal ventilator (Kent Scientific Corp., Torrington, Conn.) at a respiratory rate of 40 strokes/min and peak inspiration pressure of 10 mmH2O, which was adjusted to keep blood gases and pH within the physiological range (iSTAT clinic analyzer, Heska Corp.; Waukesha, Wis.). The left femoral artery was cannulated for the measurement of blood pressure (BP). Blood samples were also withdrawn from femoral artery. The right external jugular vein was cannulated for drug/vehicle administration. Needle electrodes were inserted subcutaneously into the limbs for recording of the surface electrocardiogram (ECG).\nThe heart was exposed via an incision in the 4th intercostal space (4th and/or 5th ribs were cut for a clear surgical vision). The chest was opened and a pericardial cradle was formed using 4 retractors. A coronary artery occluder, comprised of a snare made of 5 cm PE-10 tubing with a 6-0 Prolene polypropylene suture in it, was placed loosely around the left anterior descending artery (LAD) at its origin. Two unipolar electrodes, made with teflon coated silver wire attached to a small patch of filter paper, were attached on the surface of the ischemic and normal regions of the left ventricle to record epicardial electrocardiogram.\n(§2) Reference electrodes were placed in the open incision of the neck. The body temperature of the animal was monitored via a rectal thermometer and maintained at 37-40° C. by adjusting the surface temperature of the surgical table. Regional ischemia (15 min) was induced by ligating the LAD followed by 15 min of reperfusion caused by releasing the ligation. The heart was excised at the end of the experiment and the LAD was re-ligated. The ischemic area was visualized by perfusing the heart with 1% Evans blue in saline and calculated as a percentage of total ventricular weight. Rabbits with ischemic area less than 10% or larger than 25% were excluded from the analysis. Animals were randomly assigned to vehicle and test compound groups. Test compounds were dissolved in 15% NMP, 10% Solutol and 75% de-ionized water (dH2O). Test compounds were given as an iv infusion at a rate targeted to reach plasma concentrations of 1 μM. After 30 min of compound administration the heart was subjected to 15 min of ischemia followed by 15 min of reperfusion."}, "[2]": {"assay": "Plasma concentration in the rabbit ischemia study", "type": "in vivo, New Zealand rabbits", "conditions": "iv infusion targeted to 1 uM plasma", "procedure": "as §1, §2"}}, "data": [{"smiles": "Cc1cc(OC(F)(F)F)ccc1-c1cc2c(OCc3ncccn3)noc2cc1C", "note": "[Example 29, 6-methyl-5-(2-methyl-4-(trifluoromethoxy)phenyl)-3-(pyrimidin-2-ylmethoxy)benzo[d]isoxazole]", "values": [{"measurement": "Nav 1.7-VDB 1 uM", "setting": "hNav1.7", "result": 34.2, "unit": "percentage inhibition"}]}, {"smiles": "FC(F)(F)COc1ccc(-c2ccc3onc(OCc4ncccn4)c3c2)cn1", "note": "[Example 21, 3-(pyrimidin-2-ylmethoxy)-5-(6-(2,2,2-trifluoroethoxy)pyridin-3-yl)benzo[d]isoxazole]", "values": [{"measurement": "Rabbit ST Segment (Percent reduction)", "setting": "[1]", "result": 66, "unit": "Percent reduction"}, {"measurement": "Plasma concentration", "setting": "[2]", "result": 400, "unit": "nM"}]}]}
